# Experimental data: patent US5486595A, “Tumor necrosis factor inhibitors” (Centecor, Inc., priority 1994, dated 1996)
# Where a SMILES comes first, the peptide text is derived from it.
# Biological target: T1, human TNFα (Homo sapiens, UniProt P01375)
# T1 construct: purchased Biosource, Camarillo, Calif
# Assay: p55 Receptor/IgG Fusion Protein Binding Assay (inhibition of TNFα capture by p55-Ig coated plate)
# Conditions: peptide 1 mM; TNFα 25 ng/ml; read-out: inhibition of binding of TNFα to p55TNFr-IgG chimeric construct
# Description: This assay was designed to identify peptides which bind to human TNFα and thereby prevent the capture of the TNFα by a microtiter plate coated with p55-Ig fusion protein. A constant concentration of human TNFα is preincubated with the test peptide and then incubated on the p55-Ig coated microtiter wells. Bound TNFα is detected using a specific antisera and an alkaline phosphatase-conjugated probe.
# A 96-well, U-bottom polyvinylchloride microtiter plate was coated with 50 μl/well of p55-Ig fusion protein at 5 μg/ml in 0.01M sodium phosphate, 0.15M sodium chloride (PBS) by incubation overnight at 4° C. or 2 hours at 37° C. The fusion protein, which consists of a p55 TNF receptor protein portion and an IgG portion, can be produced as disclosed in U.S. application Ser. No. 08/010,406 filed Jan. 29, 1993 which is incorporated herein by reference. The plate was washed three times with 0.05% Tween-20 in PBS, then blocked, by adding 150 μl/well of assay buffer (10 mM N-2-hydroxyethylpiperazine-N'-[…] (HEPES) pH 7.2, containing 0.1% porcine gelatin, 0.1% Tween-80, and 0.01% sodium azide) and continuing incubation for 1 hour at 37° C. or at 4° C. for 1-7 days.
# Lyophilized peptides to be tested were weighed in tared 12×75 mm polystyrene tubes and reconstituted to a concentration of 1.2 mM with assay buffer. Each suspension was sonicated in a water bath for 1-5 minutes and vortexed 15-30 seconds to disperse large particles. Serial dilutions of each peptide suspension were prepared using assay buffer in a 96-well polystyrene microtiter plate. Additional wells received Fab fragment of the mouse/human monoclonal anti-human TNFα antibody cA2 (positive control) or assay buffer (negative control). […] The polystyrene dilution plate was then sealed and incubated 1 hour at room temperature on an orbital mixer set at moderate speed.
# Following the sample preincubation, blocker was discarded from the p55-Ig coated plate and blotted dry. Aliquots (50 μl) of each peptide or control were transferred into duplicate wells on the p55-Ig coated plate which was then sealed and incubated i hour at 37° C. Duplicate wells containing only assay buffer were included as a plate blank. After incubation the p55-Ig plate was washed three times with 0.05% Tween-20 in PBS.
# To detect TNFα captured by the p55-Ig plate, all wells were incubated in succession with polyclonal rabbit anti-human TNFα (Genzyme, Boston, Mass.; 1:500 in assay buffer, 50 μl/well), biotinylated goat anti-rabbit Ig (H&L) (Vector Laboratories, Burlingame, Calif.; 1 μg/ml in assay buffer, 50 μl/well) and streptavidin-alkaline phosphatase conjugate (Pierce, Rockford, Ill.; 1 μg/ml in assay buffer, 50 μl/well). All incubations were for 1 hour at 37° C. and after each incubation the plate was washed three times with 0.05% Tween-20 in PBS. Fifty microliters of alkaline phosphatase substrate solution (alkaline buffer (Sigma, St. Louis, Mo.) diluted 1:500 in deionized water plus one 5 mg tablet of p-nitrophenyl phosphate (Sigma, St. Louis, Mo.) per 5 ml of diluted buffer) was added to all wells and incubation continued for 20 minutes at room temperature. Color development was stopped by adding to all wells 50 μl of 3N sodium hydroxide. The optical density (OD) at 405 nm was measured on a microtiter plate reader (Molecular Devices Vmax plate reader), with the plate blank wells subtracted as background. The activity of each peptide was then expressed as the percent inhibition of TNFα capture by the p55-Ig plate, relative to the amount of TNFα captured in wells containing only assay buffer (negative control), as follows: % inhibition=100-((mean OD peptide/mean OD negative control)×100).
# The inhibition of binding of TNFα to p55TNFr-IgG chimeric construct was performed as described above using several embodiments of the invention. The peptides were tested at a concentration of 1 mM.
# T1 sequence (P01375 77-233 limits assumed): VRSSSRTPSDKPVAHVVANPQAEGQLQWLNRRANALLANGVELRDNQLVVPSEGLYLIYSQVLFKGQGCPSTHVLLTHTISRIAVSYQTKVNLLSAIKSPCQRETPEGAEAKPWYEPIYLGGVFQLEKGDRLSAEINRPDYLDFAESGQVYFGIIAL
row,inhibition at 1000 µM [%],Structure (SMILES)
1,69,CC(C)C[C@H](NC(=O)[C@H](CCCNC(=N)N)NC(=O)[C@H](C)NC(=O)[C@@H](NC(=O)[C@H](CO)NC(=O)CNC(=O)[C@@H]1CCCN1C(=O)[C@H](CCC(=O)O)NC(=O)[C@@H]1CCCN1C(=O)[C@H](C)NC(=O)[C@H](Cc1ccc(O)cc1)NC(=O)[C@@H]1CCCN1C(=O)[C@@H](NC(=O)[C@@H](N)Cc1ccccc1)[C@@H](C)O)[C@@H](C)O)C(=O)N[C@@H](CCCNC(=N)N)C(N)=O [SEQ ID NO:25] (H-FTPYAPEPGSTARLR-NH2)
2,71,CC(C)C[C@H](NC(=O)[C@H](CCCNC(=N)N)NC(=O)[C@H](C)NC(=O)[C@@H](NC(=O)[C@H](CO)NC(=O)CNC(=O)[C@@H]1CCCN1C(=O)[C@H](CCC(=O)O)NC(=O)[C@@H]1CCCN1C(=O)[C@H](C)NC(=O)[C@@H](N)Cc1ccc(O)cc1)[C@@H](C)O)C(=O)N[C@@H](CCCNC(=N)N)C(=O)N[C@@H](CCC(=O)O)C(=O)N[C@@H](Cc1ccc(O)cc1)C(=O)N[C@@H](Cc1ccc(O)cc1)C(N)=O [SEQ ID NO:26] (H-YAPEPGSTARLREYY-NH2)

# More lines, now with the values behind:
row,Structure (SMILES),inhibition at 1000 µM [%]
1,"CC[C@H](C)[C@H](NC(=O)[C@H](CCC(N)=O)NC(=O)[C@@H]1CCCN1)C(=O)N[C@@H](CCC(=O)O)C(=O)N[C@@H](CC(N)=O)C(=O)N[C@H](C(=O)N[C@@H](CCCCN)C(=O)NCC(=O)N[C@H](C(=O)N[C@@H](CCC(=O)O)C(=O)N[C@@H](CC(N)=O)C(=O)N[C@@H](CO)C(=O)NCC(=O)N[C@H](C(=O)N[C@H](C(N)=O)[C@@H](C)O)[C@@H](C)O)[C@@H](C)O)C(C)C [SEQ ID NO:23, Prolyl-glutaminyl-isoleucyl-glutamyl-asparaginyl-valyl-lysyl-glycyl-threonyl-glutamyl-asparaginyl-seryl-glycyl-threonyl-threonine Amide] (H-PQIENVKGTENSGTT-NH2)",52
2,CC(C)C[C@H](NC(=O)[C@H](C)NC(=O)[C@H](CC(C)C)NC(=O)[C@H](CO)NC(=O)[C@H](C)NC(=O)[C@H](CC(N)=O)NC(=O)[C@H](Cc1ccccc1)NC(=O)[C@H](C)NC(=O)[C@H](CCC(N)=O)NC(=O)[C@H](Cc1ccccc1)NC(=O)[C@H](CC(C)C)NC(=O)[C@H](CC(N)=O)NC(=O)[C@H](CCC(=O)O)NC(=O)[C@@H](N)CO)C(=O)N[C@@H](CC(N)=O)C(N)=O [SEQ ID NO:24] (H-SENLFQAFNASLALN-NH2),21
3,CC(C)C[C@H](NC(=O)[C@H](CCCNC(=N)N)NC(=O)[C@H](C)NC(=O)[C@@H](NC(=O)[C@H](CO)NC(=O)CNC(=O)[C@@H]1CCCN1C(=O)[C@@H](N)CCC(=O)O)[C@@H](C)O)C(=O)N[C@@H](CCCNC(=N)N)C(=O)N[C@@H](CCC(=O)O)C(=O)N[C@@H](Cc1ccc(O)cc1)C(=O)N[C@@H](Cc1ccc(O)cc1)C(=O)N[C@@H](CC(=O)O)C(=O)N[C@@H](CCC(N)=O)C(=O)N[C@H](C(N)=O)[C@@H](C)O [SEQ ID NO:27] (H-EPGSTARLREYYDQT-NH2),78
4,CSCC[C@H](NC(=O)[C@H](CCC(N)=O)NC(=O)[C@H](C)NC(=O)[C@@H](NC(=O)[C@H](CCC(N)=O)NC(=O)[C@H](CC(=O)O)NC(=O)[C@H](Cc1ccc(O)cc1)NC(=O)[C@H](Cc1ccc(O)cc1)NC(=O)[C@H](CCC(=O)O)NC(=O)[C@H](CCCNC(=N)N)NC(=O)[C@H](CC(C)C)NC(=O)[C@H](CCCNC(=N)N)NC(=O)[C@H](C)NC(=O)[C@@H](NC(=O)[C@@H](N)CO)[C@@H](C)O)[C@@H](C)O)C(N)=O [SEQ ID NO:28] (H-STARLREYYDQTAQM-NH2),72
5,CSCC[C@H](NC(=O)[C@H](CCC(N)=O)NC(=O)[C@H](C)NC(=O)[C@@H](NC(=O)[C@H](CCC(N)=O)NC(=O)[C@H](CC(=O)O)NC(=O)[C@H](Cc1ccc(O)cc1)NC(=O)[C@H](Cc1ccc(O)cc1)NC(=O)[C@H](CCC(=O)O)NC(=O)[C@H](CCCNC(=N)N)NC(=O)[C@H](CC(C)C)NC(=O)[C@@H](N)CCCNC(=N)N)[C@@H](C)O)C(=O)N[C@@H](C)C(=O)N[C@@H](C)C(=O)N[C@@H](CO)C(N)=O [SEQ ID NO:29] (H-RLREYYDQTAQMAAS-NH2),53
